Data reported in US20150218534A1, “MODIFIED DNA POLYMERASE” (TOYOBO CO., LTD., priority 2012, published 2015).

B1: Pfu Y7A/V93K: modified Pfu DNA polymerase with Y7A and V93K (protein, UniProt P61875 1-775, looked up, variant Y7A V93K)
DNA polymerase: MILDVDAITEEGKPVIRLFKKENGKFKIEHDRTFRPYIYALLRDDSKIEEVKKITGERHGKIVRIVDVEKVEKKFLGKPITVWKLYLEHPQDKPTIREKVREHPAVVDIFEYDIPFAKRYLIDKGLIPMEGEEELKILAFDIETLYHEGEEFGKGPIIMISYADENEAKVITWKNIDLPYVEVVSSEREMIKRFLRIIREKDPDIIVTYNGDSFDFPYLAKRAEKLGIKLTIGRDGSEPKMQRIGDMTAVEVKGRIHFDLYHVITRTINLPTYTLEAVYEAIFGKPKEKVYADEIAKAWESGENLERVAKYSMEDAKATYELGKEFLPMEIQLSRLVGQPLWDVSRSSTGNLVEWFLLRKAYERNEVAPNKPSEEEYQRRLRESYTGGFVKEPEKGLWENIVYLDFRALYPSIIITHNVSPDTLNLEGCKNYDIAPQVGHKFCKDIPGFIPSLLGHLLEERQKIKTKMKETQDPIEKILLDYRQKAIKLLANSFYGYYGYAKARWYCKECAESVTAWGRKYIELVWKELEEKFGFKVLYIDTDGLYATIPGGESEEIKKKALEFVKYINSKLPGLLELEYEGFYKRGFFVTKKRYAVIDEEGKVITRGLEIVRRDWSEIAKETQARVLETILKHGDVEEAVRIVKEVIQKLANYEIPPEKLAIYEQITRPLHEYKAIGPHVAVAKKLAAKGVKIKPGMVIGYIVLRGDGPISNRAILAEEYDPKKHKYDAEYYIENQVLPAVLRILEGFGYRKEDLRYQKTRQVGLTSWLNIKKS

How the values were obtained:
Assay type in all cases: biochemical
[1] = system: bisulfite-treated human genomic DNA (MINT1, RAR, THBS1, MINT31); experiment: PCR amplification of bisulfite-treated DNA; settings: 40 cycles (FIG. 12)
Procedure: (§1) Using bisulfite-treated DNA as a template and various primers, the difference in PCR amplification was compared. For comparison, KOD mutant (Y7A/V93K) and KOD (wild-type), each mixed with 1 μg of a KOD antibody per U of the enzyme, and Taq DNA polymerase mixed with an antibody (a mixture of equal amounts of Taq DNA polymerase (produced by Toyobo Co. Ltd.) and Anti-Taq High (produced by Toyobo Co. Ltd.)) were used.
The bisulfite-treated DNA used was human genomic DNA (produced by Roche) that had been treated with a MethylCode Bisulfite Conversion Kit of Invitrogen.
For PCR with the KOD mutant (Y7A/V93K) and PCR with the KOD, a buffer, MgSO4, and dNTPs included in KOD-Plus-Ver. 2 (produced by Toyobo Co. Ltd.) were used. 50 μl of individual reaction solutions containing 1× PCR buffer, 1.5 mM MgSO4, dNTPs (dATP, dTTP, dCTP, dGTP) in an amount of 0.2 mM, primers (SEQ ID NOs: 42 and 43 for amplification of MINT1; SEQ ID NOs: 44 and 45for amplification of RAR; SEQ ID NOs: 46 and 47 for amplification of THBS1; SEQ ID NOs: 48 and 49 for amplification of MINT31) in an amount of 15 pmol, 1 μl of bisulfite-treated DNA extract, and 1 U of each respective enzyme mixed with the antibody were used. PCR was performed using a GeneAmp PCR system 9700 (Applied Biosystems) on the following schedule: preliminary reaction at 94° C. for 2 minutes, followed by 40 cycles, each cycle consisting of 98° C. for 10 seconds, 55° C. for 15 seconds, and 68° C. for 1 minute.
For PCR with the Taq DNA polymerase, 50 μl of a reaction solution containing 1× buffer included in Blend Taq (product of Toyobo), dNTPs (dATP, […], dCTP, dGTP) in an amount of 0.2 mM, primers in an amount of 15 pmol (the same as above), 1 μl of bisulfite-treated DNA extract, and 2.5 U of the enzyme mixed with the antibody was used. […]
(§2) After the completion of each individual reaction, each of the resulting reaction solutions was analyzed using a DNA-1000 kit for MultiNA (produced by Shimadzu Corporation) to confirm amplified DNA fragments.

Psychrobacter DNA = experiment: PCR amplification using inosine-containing primers
Procedure: as §1, with “inosine-containing” for “bisulfite-treated DNA as a template and various”, “mutants” for “mutant (Y7A/V93K)”
For PCR with the KOD mutants and PCR with the KOD, a buffer, MgSO4, and dNTPs included in KOD-Plus-Ver. 2 (produced by Toyobo Co. Ltd.) were used. 50 μl of individual reaction solutions containing 1× PCR buffer, 1.5 mM MgSO4, dNTPs (dATP, dTTP, dCTP, dGTP) in an amount of 0.2 mM, primers (SEQ ID NOs: 40 and 41) in an amount of 75 pmol or 150 pmol, 100 ng of Psychrobacter DNA, and 1 U of each respective enzyme mixed with the antibody were used. PCR was performed using a GeneAmp PCR system 9700 (Applied Biosystems) on the following schedule: preliminary reaction at 94° C. for 2 minutes, followed by 35 cycles, each cycle consisting of 98° C. for 10 seconds, 54° C. for 10 seconds, and 68° C. for 1 minute.
For PCR with the Taq DNA polymerase, 50 μl of a reaction solution containing 1× buffer included in Blend Taq (product of Toyobo), dNTPs (dATP, […], dCTP, dGTP) in an amount of 0.2 mM, primers in an amount of 75 pmol or 150 pmol (the same as above), 100 ng of Psychrobacter DNA, and 2.5 U of the enzyme mixed with the antibody was used. PCR was performed using a GeneAmp PCR system 9700 (Applied Biosystems) on the following schedule: preliminary reaction at 94° C. for 2 minutes, followed by 35 cycles, each cycle consisting of 94° C. for 30 seconds, 54° C. for 30 seconds, and 68° C. for 1 minute.
as §2

[2] = system: 1.3 kbp, 2.8 kbp, and 3.6 kbp of human β-globin; experiment: Amplification of long-chain DNA in PCR using dUTP; settings: 1.3, 2.8, 3.6 kbp; 100% dUTP (FIGS. 9 and 10)
Procedure: Amplification of 1.3 kbp, 2.8 kbp, and 3.6 kbp of human β-globin in PCR using dUTP was compared. For amplification, each enzyme was used after being mixed with 1 μg of a KOD antibody per U of the enzyme. For PCR, components included in KOD-Plus-Ver. 2 (produced by Toyobo Co. Ltd.) were used. 50 μl of individual reaction solutions containing 1× PCR buffer, 1.5 mM MgSO4, dNTPs (dATP, dUTP, dCTP, dGTP) in an amount of 2 mM in which dTTP was replaced by dUTP, primers in an amount of 15 pmol (SEQ ID NOs: 25 and 26 for amplification of 1.3 kbp; SEQ ID NOs: 26 and 29 for amplification of 2.8 kbp; SEQ ID NOs: 30 and 31 for amplification of 3.6 kbp), 10 ng of human genomic DNA (produced by Roche), and 1 U of each respective enzyme mixed with the antibody were used. PCR was performed using a GeneAmp PCR system 9700 (Applied Biosystems) on the following schedule: preliminary reaction at 94° C. for 2 minutes, followed by 35 cycles, each cycle consisting of 98° C. for 10 seconds, 65° C. for 30 seconds, and 68° C. for about 1 minute per kbp (1 minute and 30 seconds for amplification of 1.3 kbp; 3 minutes for amplification of 2.8 kbp; 4 minutes for amplification of 3.6 kbp). As a control, amplification was also performed using Taq DNA polymerase. Taq DNA polymerase produced by Toyobo Co. Ltd. mixed with Anti-Taq High (produced by Toyobo Co. Ltd.) was used. 50 μl of a reaction solution containing 1× buffer included in Blend Taq, dNTPs (dATP, dUTP, dCTP, dGTP) in an amount of 2 mM in which dTTP was replaced by dUTP, primers in an amount of 10 pmol the same as the above), 10 ng of human genomic DNA (produced by Roche), and 2.5 U of the enzyme mixed with the antibody was used. PCR was performed using a GeneAmp PCR system 9700 (produced by Applied Biosystems) on the following schedule: preliminary reaction at 94° C. for 2 minutes, followed by 35 cycles, each cycle consisting of 94° C. for 30 seconds, 65° C. for 30 seconds, and 68° C. for about 1 minute per kbp (1 minute and 30 seconds for amplification of 1.3 kbp; 3 minutes for amplification of 2.8 kbp; 4 minutes for amplification of 3.6 kbp). After the completion of each individual reaction, 5 μl of each of the resulting reaction solutions was subjected to agarose electrophoresis, followed by ethidium bromide staining, and the amount of amplified DNA fragments was confirmed under ultraviolet irradiation. FIGS. 9 and 10 show the results.

[3] = system: 0.7 kbp of human β-globin amplified in PCR with dUTP; experiment: Degradation with UNG of DNA amplified in the presence of dUTP; settings: 37° C. for 10 minutes (FIG. 13)
Procedure: It was confirmed whether 0.7 kbp of human β-globin amplified using KOD mutant with reduced uracil sensitivity (N210D/Y7A/P36H) in PCR with dUTP was degraded by being reacted with UNG. For PCR, components included in KOD-Plus-Ver. 2 (produced by Toyobo Co. Ltd.) were used. 50 μl of a reaction solution containing 1× PCR buffer, 1.5 mM MgSO4, dNTPs (dATP, dUTP, dCTP, dGTP) in an amount of 2 mM in which dTTP was replaced by dUTP, primers (SEQ ID NOs: 50 and 51) in an amount of 15 pmol, 10 ng of human genomic DNA (produced by Roche), and 1 U of the enzyme mixed with an antibody was used. PCR was performed using a GeneAmp PCR system 9700 (Applied Biosystems) on the following schedule: preliminary reaction at 94° C. for 2 minutes, followed by 35 cycles, each cycle consisting of 98° C. for 10 seconds, 60° C. for 30 seconds, and 68° C. for 1 minute. The amplification products were diluted with the above-mentioned 1× PCR buffer to 10 ng/μl, 8 μl of the diluted amplification products was mixed with 2 μl of various concentrations of UNG (produced by Roche), and the mixtures were reacted at 37° C. for 10 minutes. After the completion of each individual reaction, each of the mixtures was analyzed using a DNA-1000 kit for MultiNA (produced by Shimadzu Corporation) to confirm the amount of amplification products.

| Molecule | amplification of bisulfite-treated DNA [1] | amount of inosine-containing primers at which amplification was observed (Psychrobacter DNA; 75 pmol or 150 pmol tested) [pmol] | amplification with inosine-containing primers (Psychrobacter DNA; primers 75 pmol or 150 pmol, 35 cycles (FIG. 11)) | amount of amplification of long-chain DNA with dUTP [2] | degradation with UNG of DNA amplified with the polymerase in the presence of dUTP [3] |
| --- | --- | --- | --- | --- | --- |
| Taq DNA polymerase: Taq DNA polymerase produced by Toyobo Co. Ltd. mixed with Anti-Taq High, used as control [reference compound] | stable amplification was confirmed | 150 | stable amplification was confirmed | cannot be amplified |  |
| B1 |  |  |  | provided larger amounts of amplification | the DNA was degraded with UNG |
